# Reference: patent US20080051387A1, “TETRAHYDROPYRIDO[3,4-D]PYRIMIDINES AND RELATED ANALOGUES” (priority 2006, published 2008)
# Biological target: T1, chimeric human H3 receptor (Homo sapiens, UniProt Q9Y5N1)
# T1 construct: rat Galpha-i2 (Gnai2, rat); made in house; host or cells: Sf9 insect cells (baculovirus); P2 membranes
# Test: Chimeric human H3 receptor screening GTP binding assay (inhibition of histamine-stimulated GTP-gamma35S binding, Example 8)
# Type: biochemical
# Settings: symbol ! in Ki; test compound 4 μM, 1 μM histamine; read-out: percent inhibition of agonist-induced GTP-gammaS binding to H3
# Method: This Example illustrates a representative screening assay for evaluating inhibition of histamine-stimulated GTP-gamma^35S binding. Such GTP binding activity can be used to identify H3 antagonists and inverse agonists. A compound analyzed in this assay is referred to herein as a “test compound,” and the initial identification of antagonists and inverse agonists is performed using a test compound concentration of 4 μM.
# Four independent baculoviral stocks (one directing the expression of the chimeric human H3 receptor and three directing the expression of each of the three subunits of a heterotrimeric G-protein) are used to infect a culture of Sƒ9 cells as described above. P2 membranes are prepared as described above, and are resuspended by Dounce homogenization (tight pestle) in GTP binding assay buffer (50 mM Tris pH 7.4, 120 mM NaCl, 5 mM MgCl2, 2 mM EGTA, 1 mg/ml BSA, 0.2 mg/ml bacitracin, 0.02 mg/ml aprotinin, 0.01 mg/ml saponin, 10 μM GDP) and added to assay tubes at a concentration of 35 μg protein/reaction tube. Non-radiolabeled test compounds are added to separate reactions at a concentration of 4 μM along with 1 μM histamine (agonist). Reactions are initiated by the addition of 125 pM GTP-gamma^35S with a final assay volume of 0.20 ml.
# After a 60-min incubation at room temperature, reactions are terminated by vacuum filtration over GF/C filters (pre-soaked in 50 mM Tris pH 7.4, 120 mM NaCl plus 0.1% BSA) followed by washing with ice-cold buffer (50 mM Tris pH 7.4, 120 mM NaCl). The amount of receptor-bound (and thereby membrane-bound) GTP-gamma^35S is determined by measuring the bound radioactivity, preferably by liquid scintillation spectrometry of the washed filters. Non-specific binding is determined using 10 uM GTP-gammaS and typically represents less than 5 percent of total binding. After subtraction of non-specific binding, data is expressed as percent inhibition of 1 μM histamine signal.
# Neutral antagonists are those test compounds that reduce the histamine-stimulated GTP binding activity towards, but not below, baseline levels. In contrast, in the absence of added histamine, inverse agonists reduce the GTP binding activity of the receptor-containing membranes below baseline. Any test compound that elevates GTP binding activity above baseline in the absence of added histamine in this assay is defined as having agonist activity.
# T1 sequence (Q9Y5N1 with tags, fused parts or gaps): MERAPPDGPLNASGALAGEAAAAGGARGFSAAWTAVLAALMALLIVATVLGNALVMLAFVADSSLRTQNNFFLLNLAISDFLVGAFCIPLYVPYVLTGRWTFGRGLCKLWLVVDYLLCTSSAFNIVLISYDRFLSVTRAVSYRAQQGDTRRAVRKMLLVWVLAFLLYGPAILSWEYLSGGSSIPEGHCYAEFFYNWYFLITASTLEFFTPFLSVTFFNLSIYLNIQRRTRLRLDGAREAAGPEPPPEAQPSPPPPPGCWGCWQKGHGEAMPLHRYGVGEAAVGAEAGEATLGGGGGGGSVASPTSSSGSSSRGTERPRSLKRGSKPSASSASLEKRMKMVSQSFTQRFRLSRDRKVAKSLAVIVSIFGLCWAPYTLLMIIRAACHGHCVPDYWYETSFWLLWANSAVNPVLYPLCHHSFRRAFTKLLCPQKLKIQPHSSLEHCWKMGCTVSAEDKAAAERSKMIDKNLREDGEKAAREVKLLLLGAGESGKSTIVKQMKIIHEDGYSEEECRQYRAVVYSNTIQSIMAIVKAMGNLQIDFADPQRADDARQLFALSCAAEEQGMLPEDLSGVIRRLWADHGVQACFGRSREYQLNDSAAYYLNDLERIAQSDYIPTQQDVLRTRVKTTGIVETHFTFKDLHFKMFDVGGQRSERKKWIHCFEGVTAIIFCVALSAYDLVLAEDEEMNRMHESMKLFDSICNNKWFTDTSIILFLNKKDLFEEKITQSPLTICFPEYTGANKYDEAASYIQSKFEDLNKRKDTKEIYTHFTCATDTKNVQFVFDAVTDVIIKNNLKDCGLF
row,inhibition at 4 µM [%],SMILES
1,≥ 90,"Fc1ccc(CN2CCc3c(ncnc3N3CCN(C4CCC4)CC3)C2)cc1 [Compound 68, 4-(4-cyclobutylpiperazin-1-yl)-7-(4-fluorobenzyl)-5,6,7,8-tetrahydropyrido[3,4-d]pyrimidine]"
2,≥ 90,"Cc1cccc(CN2CCc3c(ncnc3N3CCN(C4CCC4)CC3)C2)c1 [Compound 69, 4-(4-cyclobutylpiperazin-1-yl)-7-(3-methylbenzyl)-5,6,7,8-tetrahydropyrido[3,4-d]pyrimidine]"
3,≥ 90,"Cc1ccc(CN2CCc3c(ncnc3N3CCN(C4CCC4)CC3)C2)cc1 [Compound 70, 4-(4-cyclobutylpiperazin-1-yl)-7-(4-methylbenzyl)-5,6,7,8-tetrahydropyrido[3,4-d]pyrimidine]"
4,≥ 90,"Cn1ccnc1CN1CCc2c(ncnc2N2CCN(C3CCC3)CC2)C1 [Compound 71, 4-(4-cyclobutylpiperazin-1-yl)-7-[(1-methyl-1H-imidazol-2-yl)methyl]-5,6,7,8-tetrahydropyrido[3,4-d]pyrimidine]"
5,≥ 90,"c1ccc2c(CN3CCc4c(ncnc4N4CCN(C5CCC5)CC4)C3)ccnc2c1 [Compound 72, 4-(4-cyclobutylpiperazin-1-yl)-7-(quinolin-4-ylmethyl)-5,6,7,8-tetrahydropyrido[3,4-d]pyrimidine]"
6,≥ 90,"c1ccc2ncc(CN3CCc4c(ncnc4N4CCN(C5CCC5)CC4)C3)cc2c1 [Compound 73, 4-(4-cyclobutylpiperazin-1-yl)-7-(quinolin-3-ylmethyl)-5,6,7,8-tetrahydropyrido[3,4-d]pyrimidine]"
7,≥ 90,"Cc1cccc(CN2CCc3c(ncnc3N3CCN(C4CCC4)CC3)C2)n1 [Compound 74, 4-(4-cyclobutylpiperazin-1-yl)-7-[(6-methylpyridin-2-yl)methyl]-5,6,7,8-tetrahydropyrido[3,4-d]pyrimidine]"
8,≥ 90,"c1cncc(CN2CCc3c(ncnc3N3CCN(C4CCC4)CC3)C2)c1 [Compound 75, 4-(4-cyclobutylpiperazin-1-yl)-7-(pyridin-3-ylmethyl)-5,6,7,8-tetrahydropyrido[3,4-d]pyrimidine]"
9,≥ 90,"c1nc2c(c(N3CCN(C4CCC4)CC3)n1)CCN(Cc1ccc(N3CCOCC3)nc1)C2 [Compound 76, 4-(4-cyclobutylpiperazin-1-yl)-7-[(6-morpholin-4-ylpyridin-3-yl)methyl]-5,6,7,8-tetrahydropyrido[3,4-d]pyrimidine]"
10,≥ 90,Cc1cc(CN2CCc3c(ncnc3N3CCN(C4CCC4)CC3)C2)n(C)n1 [Compound 77]
11,≥ 90,"COc1ccccc1CN1CCc2c(ncnc2N2CCN(C3CCC3)CC2)C1 [Compound 78, 4-(4-cyclobutylpiperazin-1-yl)-7-(2-methoxybenzyl)-5,6,7,8-tetrahydropyrido[3,4-d]pyrimidine]"
12,≥ 90,"COc1ccc(CN2CCc3c(ncnc3N3CCN(C4CCC4)CC3)C2)c(OC)c1 [Compound 79, 4-(4-cyclobutylpiperazin-1-dimethoxybenzyl)-5,6,7,8-tetrahydropyrido[3,4-d]pyrimidine]"
13,≥ 90,CC(C)c1ccc(CN2CCc3c(ncnc3N3CCN(C4CCC4)CC3)C2)cc1 [Compound 80]
14,≥ 90,"CCN1CCc2c(ncnc2N2CCN(C3CCC3)CC2)C1 [Compound 81, 4-(4-cyclobutylpiperazin-1-yl)-7-ethyl-5,6,7,8-tetrahydropyrido[3,4-d]pyrimidine]"
15,≥ 90,"CC(C)CCN1CCc2c(ncnc2N2CCN(C3CCC3)CC2)C1 [Compound 82, 4-(4-cyclobutylpiperazin-1-yl)-7-(3-methylbutyl)-5,6,7,8-tetrahydropyrido[3,4-d]pyrimidine]"
16,≥ 90,"CCCCN1CCc2c(ncnc2N2CCN(C3CCC3)CC2)C1 [Compound 83, 7-butyl-4-(4-cyclobutylpiperazin-1-yl)-5,6,7,8-tetrahydropyrido[3,4-d]pyrimidine]"
17,≥ 90,"CCCCCN1CCc2c(ncnc2N2CCN(C3CCC3)CC2)C1 [Compound 84, 4-(4-cyclobutylpiperazin-1-yl)-7-pentyl-5,6,7,8-tetrahydropyrido[3,4-d]pyrimidine]"

row,inhibition at 4 µM [%],SMILES
1,≥ 90,"CCCCCCN1CCc2c(ncnc2N2CCN(C3CCC3)CC2)C1 [Compound 85, 4-(4-cyclobutylpiperazin-1-yl)-7-hexyl-5,6,7,8-tetrahydropyrido[3,4-d]pyrimidine]"
2,≥ 90,"CC(C)CN1CCc2c(ncnc2N2CCN(C3CCC3)CC2)C1 [Compound 86, 4-(4-cyclobutylpiperazin-1-yl)-7-isobutyl-5,6,7,8-tetrahydropyrido[3,4-d]pyrimidine]"
3,≥ 90,"CCC(C)CN1CCc2c(ncnc2N2CCN(C3CCC3)CC2)C1 (stereo not drawn) [Compound 87, 4-(4-cyclobutylpiperazin-1-yl)-7-(2-methylbutyl)-5,6,7,8-tetrahydropyrido[3,4-d]pyrimidine]"
4,≥ 90,"CCC(CC)CN1CCc2c(ncnc2N2CCN(C3CCC3)CC2)C1 [Compound 88, 4-(4-cyclobutylpiperazin-1-yl)-7-(2-ethylbutyl)-5,6,7,8-tetrahydropyrido[3,4-d]pyrimidine]"
5,≥ 90,"c1nc2c(c(N3CCN(C4CCC4)CC3)n1)CCN(CC1CC1)C2 [Compound 89, 4-(4-cyclobutylpiperazin-1-yl)-7-(cyclopropylmethyl)-5,6,7,8-tetrahydropyrido[3,4-d]pyrimidine]"
6,≥ 90,"CCCC(C)CN1CCc2c(ncnc2N2CCN(C3CCC3)CC2)C1 (stereo not drawn) [Compound 90, 4-(4-cyclobutylpiperazin-1-yl)-7-(2-methylpentyl)-5,6,7,8-tetrahydropyrido[3,4-d]pyrimidine]"
7,≥ 90,"Cc1ccc(CN2CCc3c(ncnc3N3CCN(C4CCC4)CC3)C2)cc1C [Compound 91, 4-(4-cyclobutylpiperazin-1-yl)-7-(3,4-dimethylbenzyl)-5,6,7,8-tetrahydropyrido[3,4-d]pyrimidine]"
8,≥ 90,"c1nc2c(c(N3CCN(C4CCC4)CC3)n1)CCN(Cc1ccc3c(c1)OCCO3)C2 [Compound 92, 4-(4-cyclobutylpiperazin-1-yl)-7-(2,3-dihydro-1,4-benzodioxin-6-ylmethyl)-5,6,7,8-tetrahydropyrido[3,4-d]pyrimidine]"
9,≥ 90,"c1ccc2nc(CN3CCc4c(ncnc4N4CCN(C5CCC5)CC4)C3)ccc2c1 [Compound 93, 4-(4-cyclobutylpiperazin-1-yl)-7-(quinolin-2-ylmethyl)-5,6,7,8-tetrahydropyrido[3,4-d]pyrimidine]"
10,≥ 90,"COc1cccc(CN2CCc3c(ncnc3N3CCN(C4CCC4)CC3)C2)c1OC [Compound 94, 4-(4-cyclobutylpiperazin-1-yl)-7-(2,3-dimethoxybenzyl)-5,6,7,8-tetrahydropyrido[3,4-d]pyrimidine]"
11,≥ 90,"COc1ccc(OC)c(CN2CCc3c(ncnc3N3CCN(C4CCC4)CC3)C2)c1 [Compound 95, 4-(4-cyclobutylpiperazin-1-yl)-7-(2,5-dimethoxybenzyl)-5,6,7,8-tetrahydropyrido[3,4-d]pyrimidine]"
12,≥ 90,"c1nc2c(c(N3CCN(C4CCC4)CC3)n1)CCN(Cc1ccc(N3CCCC3)nc1)C2 [Compound 96, 4-(4-cyclobutylpiperazin-1-yl)-7-[(6-pyrrolidin-1-ylpyridin-3-yl)methyl]-5,6,7,8-tetrahydropyrido[3,4-d]pyrimidine]"
13,≥ 90,"Cc1c(F)cccc1CN1CCc2c(ncnc2N2CCN(C3CCC3)CC2)C1 [Compound 97, 4-(4-cyclobutylpiperazin-1-yl)-7-(3-fluoro-2-methylbenzyl)-5,6,7,8-tetrahydropyrido[3,4-d]pyrimidine]"
14,≥ 90,"Clc1ccccc1CN1CCc2c(ncnc2N2CCN(C3CCC3)CC2)C1 [Compound 98, 7-(2-chlorobenzyl)-4-(4-cyclobutylpiperazin-1-yl)-5,6,7,8-tetrahydropyrido[3,4-d]pyrimidine]"
15,≥ 90,"Clc1ccc(CN2CCc3c(ncnc3N3CCN(C4CCC4)CC3)C2)c(Cl)c1 [Compound 99, 4-(4-cyclobutylpiperazin-1-yl)-7-(2,4-dichlorobenzyl)-5,6,7,8-tetrahydropyrido[3,4-d]pyrimidine]"
16,≥ 90,"c1nc2c(c(N3CCN(C4CCC4)CC3)n1)CCN(Cc1ccc(N3CCCC3)cc1)C2 [Compound 100, 4-(4-cyclobutylpiperazin-1-yl)-7-(4-pyrrolidin-1-ylbenzyl)-5,6,7,8-tetrahydropyrido[3,4-d]pyrimidine]"
